From BindingDB's records for patent US12344595 (Merck Sharp & Dohme, 2025) come the findings set out here.

The target of this assay is Sodium channel protein type 10 subunit alpha (Homo sapiens, UniProt Q9Y5Y9). The assay is described as follows: Not found.
Text: Not found

Chain of Sodium channel protein type 10 subunit alpha (Q9Y5Y9 whole entry): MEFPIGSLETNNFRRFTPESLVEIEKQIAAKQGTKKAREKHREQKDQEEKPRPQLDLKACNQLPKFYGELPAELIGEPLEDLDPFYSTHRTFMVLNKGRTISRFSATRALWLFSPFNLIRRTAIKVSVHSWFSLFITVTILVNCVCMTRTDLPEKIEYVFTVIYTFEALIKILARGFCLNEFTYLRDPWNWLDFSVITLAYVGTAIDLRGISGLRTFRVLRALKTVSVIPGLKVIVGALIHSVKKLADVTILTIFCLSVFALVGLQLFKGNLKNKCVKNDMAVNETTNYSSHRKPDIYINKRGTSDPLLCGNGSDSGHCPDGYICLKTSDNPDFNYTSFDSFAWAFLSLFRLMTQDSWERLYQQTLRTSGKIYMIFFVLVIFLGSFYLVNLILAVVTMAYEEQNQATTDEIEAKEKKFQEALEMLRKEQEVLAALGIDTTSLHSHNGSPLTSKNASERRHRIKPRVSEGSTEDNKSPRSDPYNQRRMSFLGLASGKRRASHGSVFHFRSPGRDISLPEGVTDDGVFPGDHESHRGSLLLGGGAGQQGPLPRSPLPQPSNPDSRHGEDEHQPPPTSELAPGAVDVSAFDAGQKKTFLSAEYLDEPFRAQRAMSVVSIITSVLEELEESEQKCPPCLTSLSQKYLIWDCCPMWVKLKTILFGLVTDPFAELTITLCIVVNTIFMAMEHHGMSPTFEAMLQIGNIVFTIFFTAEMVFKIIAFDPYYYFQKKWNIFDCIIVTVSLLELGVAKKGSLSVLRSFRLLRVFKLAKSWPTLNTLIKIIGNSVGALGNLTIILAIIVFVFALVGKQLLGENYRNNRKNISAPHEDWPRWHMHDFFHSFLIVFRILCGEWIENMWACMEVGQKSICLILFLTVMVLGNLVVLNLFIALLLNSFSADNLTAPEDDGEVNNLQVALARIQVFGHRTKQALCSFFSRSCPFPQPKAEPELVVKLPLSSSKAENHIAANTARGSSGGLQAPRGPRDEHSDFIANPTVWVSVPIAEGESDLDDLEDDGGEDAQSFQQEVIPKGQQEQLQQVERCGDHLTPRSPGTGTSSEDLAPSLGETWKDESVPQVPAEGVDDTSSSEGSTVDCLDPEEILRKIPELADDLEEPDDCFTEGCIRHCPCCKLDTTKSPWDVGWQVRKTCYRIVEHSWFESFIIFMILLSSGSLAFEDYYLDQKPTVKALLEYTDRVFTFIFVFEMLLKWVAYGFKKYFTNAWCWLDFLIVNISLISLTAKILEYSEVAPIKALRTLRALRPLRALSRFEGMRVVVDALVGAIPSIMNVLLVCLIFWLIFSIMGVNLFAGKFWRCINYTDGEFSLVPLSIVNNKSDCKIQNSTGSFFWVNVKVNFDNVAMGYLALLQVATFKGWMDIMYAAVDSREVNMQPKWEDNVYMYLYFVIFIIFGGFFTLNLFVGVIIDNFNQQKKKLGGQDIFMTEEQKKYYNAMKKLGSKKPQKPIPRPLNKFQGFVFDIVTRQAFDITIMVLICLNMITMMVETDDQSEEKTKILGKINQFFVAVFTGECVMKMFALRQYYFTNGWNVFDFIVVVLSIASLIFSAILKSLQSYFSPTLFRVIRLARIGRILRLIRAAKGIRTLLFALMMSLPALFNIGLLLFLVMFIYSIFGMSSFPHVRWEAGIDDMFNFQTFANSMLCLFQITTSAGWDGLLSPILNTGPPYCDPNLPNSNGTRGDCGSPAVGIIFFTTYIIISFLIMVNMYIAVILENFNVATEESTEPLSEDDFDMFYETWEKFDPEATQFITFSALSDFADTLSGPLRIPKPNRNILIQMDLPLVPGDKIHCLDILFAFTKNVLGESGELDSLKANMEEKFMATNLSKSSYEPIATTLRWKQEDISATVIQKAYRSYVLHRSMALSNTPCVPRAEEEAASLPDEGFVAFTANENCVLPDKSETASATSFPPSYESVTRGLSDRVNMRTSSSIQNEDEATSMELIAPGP

Turning to `Cc1nc(N2CCC(F)(F)C2)c(C(=O)Nc2cccc(S(N)(=O)=O)c2)c(C)c1Cl` [US12344595, Example 5], 0.049 µM corresponded to half-maximal inhibition (IC50).
